Data reported in ChEMBL document CHEMBL5649169 (ChemMedChem, 2018).

What was measured:
Ephrin type-A receptor 7 = Ephrin type-A receptor 7 (Homo sapiens, UniProt Q15375); test: Inhibition of Nano Luc-fused full length C-terminal EPHA7 (unknown origin) expressed in HEK293T cells using NanoGlo as substrate incubated for 2 hrs in presence of tracer by NanoBRET assay; format: cell-based
[1] = target: RAC-gamma serine/threonine-protein kinase (Homo sapiens) (UniProt Q9Y243); further: assay method not described here
[2] = target: Serine-protein kinase ATM (Homo sapiens) (UniProt Q13315); further: assay method not described here
[3] = target: ATP synthase F(0) complex subunit g, mitochondrial (Homo sapiens) (UniProt O75964); further: assay method not described here
Cofilin-1 (Homo sapiens) = Cofilin-1 (Homo sapiens) (UniProt P23528); further: assay method not described here
[4] = target: MICOS complex subunit MIC19 (Homo sapiens) (UniProt Q9NX63); further: assay method not described here
[5] = target: Calponin-2 (Homo sapiens) (UniProt Q99439); further: assay method not described here
[6] = target: Carbamoyl-phosphate synthase [ammonia], mitochondrial (Homo sapiens) (UniProt P31327); further: assay method not described here
[7] = target: Eukaryotic translation initiation factor 3 subunit A (Homo sapiens) (UniProt Q14152); further: assay method not described here
[8] = target: Src substrate cortactin (Homo sapiens) (UniProt Q14247); further: assay method not described here
[9] = target: ATP-dependent RNA helicase DDX24 (Homo sapiens) (UniProt Q9GZR7); further: assay method not described here
[10] = target: 2,4-dienoyl-CoA reductase [(3E)-enoyl-CoA-producing], mitochondrial (Homo sapiens) (UniProt Q16698); further: assay method not described here
[11] = target: ATP-dependent RNA helicase DHX15 (Homo sapiens) (UniProt O43143); further: assay method not described here
[12] = target: Neutral alpha-glucosidase AB (Homo sapiens) (UniProt Q14697); further: assay method not described here
[13] = target: Heterogeneous nuclear ribonucleoprotein A/B (Homo sapiens) (UniProt Q99729); further: assay method not described here
[14] = target: Interleukin enhancer-binding factor 2 (Homo sapiens) (UniProt Q12905); further: assay method not described here
[15] = target: Importin-4 (Homo sapiens) (UniProt Q8TEX9); further: assay method not described here
[16] = target: Dual specificity mitogen-activated protein kinase kinase 6 (Homo sapiens) (UniProt P52564); further: assay method not described here
[17] = target: Mitogen-activated protein kinase 10 (Homo sapiens) (UniProt P53779); further: assay method not described here
[18] = target: Mitogen-activated protein kinase 15 (Homo sapiens) (UniProt Q8TD08); further: assay method not described here
[19] = target: Mitogen-activated protein kinase 8 (Homo sapiens) (UniProt P45983); further: assay method not described here
[20] = target: DNA replication licensing factor MCM2 (Homo sapiens) (UniProt P49736); further: assay method not described here
[21] = target: DNA replication licensing factor MCM6 (Homo sapiens) (UniProt Q14566); further: assay method not described here
[22] = target: DNA replication licensing factor MCM7 (Homo sapiens) (UniProt P33993); further: assay method not described here
Midasin (Homo sapiens) = Midasin (Homo sapiens) (UniProt Q9NU22); further: assay method not described here
[23] = target: Proliferation marker protein Ki-67 (Homo sapiens) (UniProt P46013); further: assay method not described here
[24] = target: Non-POU domain-containing octamer-binding protein (Homo sapiens) (UniProt Q15233); further: assay method not described here
[25] = target: Proliferation-associated protein 2G4 (Homo sapiens) (UniProt Q9UQ80); further: assay method not described here
[26] = target: Platelet-derived growth factor receptor beta (Homo sapiens) (UniProt P09619); further: assay method not described here
[27] = target: Pyridoxal kinase (Homo sapiens) (UniProt O00764); further: assay method not described here
[28] = target: ATP-dependent 6-phosphofructokinase, platelet type (Homo sapiens) (UniProt Q01813); further: assay method not described here
[29] = target: Proteasome Macropain subunit (Homo sapiens) (UniProt P49721); further: assay method not described here
[30] = target: Protein-tyrosine kinase 6 (Homo sapiens) (UniProt Q13882); further: assay method not described here
[31] = target: RNA-binding protein 3 (Homo sapiens) (UniProt P98179); further: assay method not described here
[32] = target: Protein RCC2 (Homo sapiens) (UniProt Q9P258); further: assay method not described here
[33] = target: Large ribosomal subunit protein uL24 (Homo sapiens) (UniProt P61254); further: assay method not described here
[34] = target: Large ribosomal subunit protein uL6 (Homo sapiens) (UniProt P32969); further: assay method not described here
[35] = target: Ribosomal protein S6 kinase alpha-3 (Homo sapiens) (UniProt P51812); further: assay method not described here
[36] = target: Protein S100-A11 (Homo sapiens) (UniProt P31949); further: assay method not described here
[37] = target: Protein transport protein Sec23A (Homo sapiens) (UniProt Q15436); further: assay method not described here
[38] = target: Protein transport protein Sec23B (Homo sapiens) (UniProt Q15437); further: assay method not described here
[39] = target: Succinate--CoA ligase [ADP-forming] subunit beta, mitochondrial (Homo sapiens) (UniProt Q9P2R7); further: assay method not described here
[40] = target: THO complex subunit 2 (Homo sapiens) (UniProt Q8NI27); further: assay method not described here
[41] = target: TELO2-interacting protein 1 homolog (Homo sapiens) (UniProt O43156); further: assay method not described here
Wherever ED50 is given: assay method not described here.

Sequence of DNA replication licensing factor MCM7 (Homo sapiens) (P33993 whole entry): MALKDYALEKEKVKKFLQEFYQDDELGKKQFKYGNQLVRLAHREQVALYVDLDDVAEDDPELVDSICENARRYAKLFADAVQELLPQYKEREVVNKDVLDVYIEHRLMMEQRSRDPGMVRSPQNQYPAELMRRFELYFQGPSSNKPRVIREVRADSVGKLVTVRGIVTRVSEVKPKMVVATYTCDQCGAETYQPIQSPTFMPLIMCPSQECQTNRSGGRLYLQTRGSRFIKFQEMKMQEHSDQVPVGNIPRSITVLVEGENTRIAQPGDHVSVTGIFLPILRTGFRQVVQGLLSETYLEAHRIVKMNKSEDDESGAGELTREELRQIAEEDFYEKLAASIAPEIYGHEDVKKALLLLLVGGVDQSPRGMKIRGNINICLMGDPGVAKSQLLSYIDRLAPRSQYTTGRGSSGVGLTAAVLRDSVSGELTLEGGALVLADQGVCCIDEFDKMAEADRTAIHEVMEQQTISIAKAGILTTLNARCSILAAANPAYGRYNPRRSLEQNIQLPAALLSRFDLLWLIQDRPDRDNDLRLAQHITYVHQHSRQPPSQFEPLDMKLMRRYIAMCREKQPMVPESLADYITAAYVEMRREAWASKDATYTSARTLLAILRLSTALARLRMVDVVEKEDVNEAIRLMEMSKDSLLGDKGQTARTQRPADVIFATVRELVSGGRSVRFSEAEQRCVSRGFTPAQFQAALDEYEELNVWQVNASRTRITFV
Sequence of DNA replication licensing factor MCM2 (Homo sapiens) (P49736 whole entry): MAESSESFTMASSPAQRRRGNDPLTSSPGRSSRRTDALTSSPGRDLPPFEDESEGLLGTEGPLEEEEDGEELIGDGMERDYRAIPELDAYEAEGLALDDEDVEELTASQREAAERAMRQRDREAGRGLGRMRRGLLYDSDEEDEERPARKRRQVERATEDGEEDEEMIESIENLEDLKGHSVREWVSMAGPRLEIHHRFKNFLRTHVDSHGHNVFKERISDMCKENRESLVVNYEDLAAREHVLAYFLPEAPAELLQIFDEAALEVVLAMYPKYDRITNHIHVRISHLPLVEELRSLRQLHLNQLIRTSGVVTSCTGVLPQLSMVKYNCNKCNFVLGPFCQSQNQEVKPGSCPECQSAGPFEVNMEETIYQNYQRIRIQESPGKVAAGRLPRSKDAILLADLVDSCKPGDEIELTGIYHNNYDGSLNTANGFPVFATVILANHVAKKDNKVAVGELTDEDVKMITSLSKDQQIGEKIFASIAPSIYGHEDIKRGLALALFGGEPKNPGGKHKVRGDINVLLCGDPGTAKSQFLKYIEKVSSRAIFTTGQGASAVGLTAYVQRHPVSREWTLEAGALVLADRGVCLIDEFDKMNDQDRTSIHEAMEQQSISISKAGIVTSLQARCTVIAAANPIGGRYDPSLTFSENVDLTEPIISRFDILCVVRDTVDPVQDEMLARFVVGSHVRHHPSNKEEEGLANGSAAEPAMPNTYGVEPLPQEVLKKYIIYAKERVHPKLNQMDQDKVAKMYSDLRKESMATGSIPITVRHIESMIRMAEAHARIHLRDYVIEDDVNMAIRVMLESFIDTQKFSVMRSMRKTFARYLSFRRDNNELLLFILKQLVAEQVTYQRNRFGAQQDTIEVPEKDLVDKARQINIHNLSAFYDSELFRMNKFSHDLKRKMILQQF
Sequence of Succinate--CoA ligase [ADP-forming] subunit beta, mitochondrial (Homo sapiens) (Q9P2R7 whole entry): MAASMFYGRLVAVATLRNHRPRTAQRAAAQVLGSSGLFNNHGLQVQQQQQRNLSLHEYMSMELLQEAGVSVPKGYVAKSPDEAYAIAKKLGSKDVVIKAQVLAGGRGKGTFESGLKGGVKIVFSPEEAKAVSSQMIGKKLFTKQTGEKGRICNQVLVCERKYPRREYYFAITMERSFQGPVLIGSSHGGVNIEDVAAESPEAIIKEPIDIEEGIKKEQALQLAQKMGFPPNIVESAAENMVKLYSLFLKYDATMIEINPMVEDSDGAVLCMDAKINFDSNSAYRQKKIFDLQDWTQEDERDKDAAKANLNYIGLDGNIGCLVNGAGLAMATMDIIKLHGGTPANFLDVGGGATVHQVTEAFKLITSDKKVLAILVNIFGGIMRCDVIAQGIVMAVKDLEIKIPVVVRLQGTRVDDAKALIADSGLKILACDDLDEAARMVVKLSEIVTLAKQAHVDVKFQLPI
Sequence of Mitogen-activated protein kinase 15 (Homo sapiens) (Q8TD08 whole entry): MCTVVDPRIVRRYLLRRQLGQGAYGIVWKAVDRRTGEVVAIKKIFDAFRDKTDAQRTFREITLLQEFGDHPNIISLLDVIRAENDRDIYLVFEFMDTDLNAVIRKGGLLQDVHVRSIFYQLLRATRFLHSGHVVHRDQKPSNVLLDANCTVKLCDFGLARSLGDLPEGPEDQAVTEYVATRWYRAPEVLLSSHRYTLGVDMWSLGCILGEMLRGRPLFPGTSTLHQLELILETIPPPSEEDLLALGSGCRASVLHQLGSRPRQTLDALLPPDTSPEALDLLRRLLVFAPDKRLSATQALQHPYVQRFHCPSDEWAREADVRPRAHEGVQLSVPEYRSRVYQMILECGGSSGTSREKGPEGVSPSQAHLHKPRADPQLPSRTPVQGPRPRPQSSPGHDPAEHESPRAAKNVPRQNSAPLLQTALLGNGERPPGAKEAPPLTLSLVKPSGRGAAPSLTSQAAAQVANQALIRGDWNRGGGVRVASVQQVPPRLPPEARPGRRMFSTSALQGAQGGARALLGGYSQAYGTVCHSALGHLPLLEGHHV
Sequence of Mitogen-activated protein kinase 8 (Homo sapiens) (P45983 whole entry): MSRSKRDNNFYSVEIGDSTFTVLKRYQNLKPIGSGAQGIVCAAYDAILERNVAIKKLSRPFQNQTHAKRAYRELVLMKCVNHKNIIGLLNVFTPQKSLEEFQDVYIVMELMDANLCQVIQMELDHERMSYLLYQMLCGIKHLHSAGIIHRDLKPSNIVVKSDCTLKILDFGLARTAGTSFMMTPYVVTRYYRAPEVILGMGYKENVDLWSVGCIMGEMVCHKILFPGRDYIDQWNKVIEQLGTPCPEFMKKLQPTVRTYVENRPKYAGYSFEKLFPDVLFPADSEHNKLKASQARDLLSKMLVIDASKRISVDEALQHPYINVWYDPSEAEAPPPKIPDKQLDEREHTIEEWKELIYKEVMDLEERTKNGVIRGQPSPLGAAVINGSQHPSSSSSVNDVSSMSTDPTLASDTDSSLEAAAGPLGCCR
Sequence of Proteasome Macropain subunit (Homo sapiens) (P49721 whole entry): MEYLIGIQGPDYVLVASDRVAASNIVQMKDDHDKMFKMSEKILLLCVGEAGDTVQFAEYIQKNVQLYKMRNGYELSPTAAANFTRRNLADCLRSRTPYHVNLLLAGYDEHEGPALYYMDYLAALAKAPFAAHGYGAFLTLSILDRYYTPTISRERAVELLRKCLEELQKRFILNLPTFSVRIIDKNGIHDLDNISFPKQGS
Sequence of RAC-gamma serine/threonine-protein kinase (Homo sapiens) (Q9Y243 whole entry): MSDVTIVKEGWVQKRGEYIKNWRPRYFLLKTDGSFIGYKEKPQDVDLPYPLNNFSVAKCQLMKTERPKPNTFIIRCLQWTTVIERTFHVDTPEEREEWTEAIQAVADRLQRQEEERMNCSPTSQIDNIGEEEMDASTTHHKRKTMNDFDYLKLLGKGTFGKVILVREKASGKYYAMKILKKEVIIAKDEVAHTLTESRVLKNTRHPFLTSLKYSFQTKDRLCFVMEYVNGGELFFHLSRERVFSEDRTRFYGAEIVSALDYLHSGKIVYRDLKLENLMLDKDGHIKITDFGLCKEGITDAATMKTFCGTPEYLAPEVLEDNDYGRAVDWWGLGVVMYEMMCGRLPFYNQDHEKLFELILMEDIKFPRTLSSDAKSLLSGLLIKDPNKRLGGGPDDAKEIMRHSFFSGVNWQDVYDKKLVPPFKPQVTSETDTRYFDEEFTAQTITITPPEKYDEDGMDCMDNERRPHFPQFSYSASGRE
Sequence of Proliferation-associated protein 2G4 (Homo sapiens) (Q9UQ80 whole entry): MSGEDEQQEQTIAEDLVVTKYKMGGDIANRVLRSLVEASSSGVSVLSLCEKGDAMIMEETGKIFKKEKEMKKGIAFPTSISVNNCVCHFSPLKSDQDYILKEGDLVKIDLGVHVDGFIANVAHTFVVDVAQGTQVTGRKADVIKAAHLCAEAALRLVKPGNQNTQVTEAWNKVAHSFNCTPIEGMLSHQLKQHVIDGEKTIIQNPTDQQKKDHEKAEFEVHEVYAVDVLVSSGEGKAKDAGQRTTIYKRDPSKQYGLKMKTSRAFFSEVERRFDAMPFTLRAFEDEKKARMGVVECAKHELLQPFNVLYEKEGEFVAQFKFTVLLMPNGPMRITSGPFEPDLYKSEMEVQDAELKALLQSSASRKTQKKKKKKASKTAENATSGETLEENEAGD
Sequence of Protein S100-A11 (Homo sapiens) (P31949 whole entry): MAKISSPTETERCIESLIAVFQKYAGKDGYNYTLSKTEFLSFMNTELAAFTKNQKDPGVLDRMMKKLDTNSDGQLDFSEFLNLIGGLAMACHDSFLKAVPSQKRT
Sequence of 2,4-dienoyl-CoA reductase [(3E)-enoyl-CoA-producing], mitochondrial (Homo sapiens) (Q16698 whole entry): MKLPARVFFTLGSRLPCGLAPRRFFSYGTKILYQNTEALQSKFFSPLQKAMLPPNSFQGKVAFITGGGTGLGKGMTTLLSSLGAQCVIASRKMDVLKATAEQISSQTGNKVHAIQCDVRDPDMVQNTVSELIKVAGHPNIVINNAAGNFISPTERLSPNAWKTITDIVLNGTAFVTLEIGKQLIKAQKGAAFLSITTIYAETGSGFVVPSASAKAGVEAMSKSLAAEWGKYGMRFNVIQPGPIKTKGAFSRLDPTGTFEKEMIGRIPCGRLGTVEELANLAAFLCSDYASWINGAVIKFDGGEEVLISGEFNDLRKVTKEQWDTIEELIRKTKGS
Sequence of Calponin-2 (Homo sapiens) (Q99439 whole entry): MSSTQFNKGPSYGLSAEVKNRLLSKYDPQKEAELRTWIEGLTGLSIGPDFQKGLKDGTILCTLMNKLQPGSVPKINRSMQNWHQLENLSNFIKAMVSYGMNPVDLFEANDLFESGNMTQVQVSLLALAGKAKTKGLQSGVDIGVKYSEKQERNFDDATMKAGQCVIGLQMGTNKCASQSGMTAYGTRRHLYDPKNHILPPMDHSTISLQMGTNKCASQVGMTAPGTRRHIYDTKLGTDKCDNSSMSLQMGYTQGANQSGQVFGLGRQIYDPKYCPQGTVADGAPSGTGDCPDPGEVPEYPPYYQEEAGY

With `Cc1ccc(C(=O)Nc2cccc(C(F)(F)F)c2)cc1Nc1nc(-c2cccnc2)nc2c1cnn2C` the IC50 (Ephrin type-A receptor 7) was > 50 µM, the ED50 [1] was 0.0059 µM and the ED50 [2] was 8680 µM. It also gave an ED50 [3] of 2.64 µM, an ED50 (Cofilin-1 (Homo sapiens)) of 7.3 µM and an ED50 [4] of 0.0271 µM. For the same molecule, the ED50 [5] was 85.5 µM, the ED50 [6] was 11.8 µM and the ED50 [7] was 0.535 µM. The ED50 [8] was 0.0605 µM, the ED50 [9] was 2.99 µM and the ED50 [10] was 3.63 µM. It also gave an ED50 [11] of 0.372 µM, an ED50 [12] of 4.09 µM and an ED50 [13] of 0.0215 µM. The ED50 [14] was 4.54 µM, the ED50 [15] was 6.36 µM and the ED50 [16] was 0.0368 µM. It also gave an ED50 [17] of 32.9 µM, an ED50 [18] of 0.026 µM and an ED50 [19] of 3.44 µM. It also gave an ED50 [20] of 3.39 µM, an ED50 [21] of 11.1 µM and an ED50 [22] of 5.39 µM. The ED50 (Midasin (Homo sapiens)) was 55500 µM, the ED50 [23] was 4.64 µM and the ED50 [24] was 3.17 µM. The ED50 [25] was 162 µM, the ED50 [26] was 0.000102 µM and the ED50 (Homo sapiens) was 0.0833 µM. The ED50 [27] was 0.00509 µM, the ED50 [28] was 9.49 µM and the ED50 [29] was 3.31 µM. For the same molecule, the ED50 [30] was 5.95 µM, the ED50 [31] was 13.5 µM and the ED50 [32] was 92.2 µM. The ED50 [33] was 6.18 µM, the ED50 [34] was 1.27 µM and the ED50 [35] was 0.00528 µM. For the same molecule, the ED50 [36] was 3.06 µM, the ED50 [37] was 4.18 µM and the ED50 [38] was 9.39 µM. For the same molecule, the ED50 [39] was 5.03 µM, the ED50 [40] was 8.4 µM and the ED50 [41] was 4370 µM.
In the case of `Cc1ccc(C(=O)Nc2cccc(C(F)(F)F)c2)cc1Nc1nc(-c2cccnc2)nc2nn(C)cc12`, the IC50 (Ephrin type-A receptor 7) is reported as > 50 µM, the ED50 [1] is reported as 3.14 µM and the ED50 [2] is reported as 1.99 µM. The ED50 [3] was 0.214 µM, the ED50 (Cofilin-1 (Homo sapiens)) was 0.0624 µM and the ED50 [4] was 0.0144 µM. The ED50 [5] was 79.2 µM, the ED50 [6] was 0.188 µM and the ED50 [7] was 0.0765 µM. It also gave an ED50 [8] of 19.6 µM, an ED50 [9] of 0.1 µM and an ED50 [10] of 10.5 µM. For the same molecule, the ED50 [11] was 23 µM, the ED50 [12] was 0.0402 µM and the ED50 [13] was 1.36 µM. It also gave an ED50 [14] of 0.0135 µM, an ED50 [15] of 1810 µM and an ED50 [16] of 1.71 µM. The ED50 [17] was 1.72 µM, the ED50 [18] was 0.0373 µM and the ED50 [19] was 0.0452 µM. The ED50 [20] was 0.0024 µM, the ED50 [21] was 0.343 µM and the ED50 [22] was 50.3 µM. It also gave an ED50 (Midasin (Homo sapiens)) of 0.048 µM, an ED50 [23] of 0.0399 µM and an ED50 [24] of 0.0517 µM. For the same molecule, the ED50 [25] was 0.365 µM, the ED50 [26] was 10 µM and the ED50 (Homo sapiens) was 21400 µM. The ED50 [27] was 1.19 µM, the ED50 [28] was 0.00571 µM and the ED50 [29] was 0.0536 µM. For the same molecule, the ED50 [30] was 68.5 µM, the ED50 [31] was 9.45 µM and the ED50 [32] was 37.9 µM. For the same molecule, the ED50 [33] was 0.0162 µM, the ED50 [34] was 5.23 µM and the ED50 [35] was 7.92 µM. The ED50 [36] was 30.9 µM, the ED50 [37] was 4.91 µM and the ED50 [38] was 0.0397 µM. For the same molecule, the ED50 [39] was 2.39 µM, the ED50 [40] was 2.05 µM and the ED50 [41] was 0.00118 µM.
